{
  "source": "patent US8658645B2",
  "about": "“Use of quinolone antibiotics” (Bayer Intellectual Property GmbH, priority 2003, dated 2014)",
  "key": {"[1]": {"system": "Peptostreptococcus", "experiment": "Geometric mean MIC of anaerobic bacteria isolated from dogs and cats (in vitro)", "assay_type": "cell-based", "details": "N=4, isolated from dogs and cats, two in vitro studies, read-out: GMIC (geometric mean of the MIC values)", "from_the_text": "(§1) Results of In Vitro Studies Geometric mean of the MIC values (Geometric Mean MIC; GMIC) of anaerobic bacteria isolated from dogs and cats compared to the standard metronidazole (μg/ml)."}, "[2]": {"system": "Porphyromonas", "experiment": "Geometric mean MIC of anaerobic bacteria isolated from dogs and cats (in vitro)", "assay_type": "cell-based", "details": "N=8, isolated from dogs and cats, two in vitro studies, read-out: GMIC (geometric mean of the MIC values)", "from_the_text": "as §1"}, "[3]": {"system": "Prevotella", "experiment": "Geometric mean MIC of anaerobic bacteria isolated from dogs and cats (in vitro)", "assay_type": "cell-based", "details": "N=25, isolated from dogs and cats, two in vitro studies, read-out: GMIC (geometric mean of the MIC values)", "from_the_text": "as §1"}, "[4]": {"system": "Bacteroides", "experiment": "Geometric mean MIC of anaerobic bacteria isolated from dogs and cats (in vitro)", "assay_type": "cell-based", "details": "N=37, isolated from dogs and cats, two in vitro studies, read-out: GMIC (geometric mean of the MIC values)", "from_the_text": "as §1"}, "[5]": {"system": "Fusobacterium", "experiment": "Geometric mean MIC of anaerobic bacteria isolated from dogs and cats (in vitro)", "assay_type": "cell-based", "details": "N=11, isolated from dogs and cats, two in vitro studies, read-out: GMIC (geometric mean of the MIC values)", "from_the_text": "as §1"}, "[6]": {"system": "parodontitis", "experiment": "Clinical study for the indication parodontitis", "assay_type": "in vivo", "details": "female beagles, 3 mg/kg once per day for seven days", "description": "Clinical Study for the Indication Parodontitis\nThe study was carried out using 16 female beagles. Pradofloxacin was administered in a dose of 3 mg/kg once per day over a period of seven days."}, "[7]": {"system": "Campylobacter rectus", "experiment": "In vitro MIC, parodontitis-causing bacteria", "assay_type": "cell-based", "details": "two strains", "description": "(§2) In this study, in each case two strains of the parodontitis-causing bacteria were isolated, and their sensitivity to pradofloxacin was determined in vitro (MIC μg/ml)."}, "[8]": {"system": "Actinobacillus actinomycetemcomitans", "experiment": "In vitro MIC, parodontitis-causing bacteria", "assay_type": "cell-based", "details": "Aggregatibacter actinomycetemcomitans, two strains", "description": "as §2"}, "[9]": {"system": "Porphyromonas cansulci", "experiment": "In vitro MIC, parodontitis-causing bacteria", "assay_type": "cell-based", "details": "Porphyromonas crevioricanis, two strains", "description": "as §2"}, "[10]": {"system": "Prevotella intermedia", "experiment": "In vitro MIC, parodontitis-causing bacteria", "assay_type": "cell-based", "details": "two strains", "description": "as §2"}, "[11]": {"system": "Porphyromonas gingivalis", "experiment": "In vitro MIC, parodontitis-causing bacteria", "assay_type": "cell-based", "details": "two strains", "description": "as §2"}, "[12]": {"system": "Fusobacterium nucleatum", "experiment": "In vitro MIC, parodontitis-causing bacteria", "assay_type": "cell-based", "details": "two strains", "description": "as §2"}, "[13]": {"system": "Porphyromonas canons", "experiment": "In vitro MIC, parodontitis-causing bacteria", "assay_type": "cell-based", "details": "two strains", "description": "as §2"}, "[14]": {"system": "Capnocytophaga ochracea", "experiment": "In vitro MIC, parodontitis-causing bacteria", "assay_type": "cell-based", "details": "two strains", "description": "as §2"}, "[15]": {"system": "Porphyromonas cangingivalis", "experiment": "In vitro MIC, parodontitis-causing bacteria", "assay_type": "cell-based", "details": "two strains", "description": "as §2"}, "[16]": {"system": "Eikenella corrodens", "experiment": "In vitro MIC, parodontitis-causing bacteria", "assay_type": "cell-based", "details": "two strains", "description": "as §2"}},
  "note": "Read-outs that look alike come from different tables or passages of the source.",
  "data": [
    {"smiles": "Cc1ncc([N+](=O)[O-])n1CCO", "note": "[metronidazole, reference compound]", "values": [
      {"measurement": "MIC", "setting": "[1]", "result": 0.8, "unit": "mg/L"},
      {"measurement": "MIC", "setting": "[2]", "result": 0.3, "unit": "mg/L"},
      {"measurement": "MIC", "setting": "[3]", "result": 0.4, "unit": "mg/L"},
      {"measurement": "MIC", "setting": "[4]", "result": 0.7, "unit": "mg/L"},
      {"measurement": "MIC", "setting": "[5]", "result": 1, "unit": "mg/L"}
    ]},
    {"smiles": "N#Cc1c(N2C[C@@H]3CCCN[C@@H]3C2)c(F)cc2c(=O)c(C(=O)O)cn(C3CC3)c12", "note": "[pradofloxacin, 8-cyano-1-cyclopropyl-7-((1S,6S)-2,8-diazabicyclo[4.3.0]nonan-8-yl)-6-fluoro-1,4-dihydro-4-oxo-3-quinolinecarboxylic acid]", "values": [
      {"measurement": "total number of anaerobic bacteria in the periodontal pockets", "setting": "[6]; after the treatment had ended, p<0.0001", "result": "reduced significantly"},
      {"measurement": "periodontal pocket depth (loss of attachment)", "setting": "[6]; p=0.02", "result": "significant reduction"},
      {"measurement": "total number of anaerobic bacteria in the periodontal pockets", "setting": "[6]; three weeks after the treatment, day 28, p=0.0007", "result": "reduced significantly"},
      {"measurement": "MIC", "setting": "[7]", "result": "< 0.25", "unit": "mg/L"},
      {"measurement": "MIC", "setting": "[8]", "result": "< 0.25", "unit": "mg/L"},
      {"measurement": "MIC", "setting": "[9]", "result": "< 0.25", "unit": "mg/L"},
      {"measurement": "MIC", "setting": "[10]", "result": "< 0.25", "unit": "mg/L"},
      {"measurement": "MIC", "setting": "[11]", "result": "< 0.25", "unit": "mg/L"},
      {"measurement": "MIC", "setting": "[12]", "result": 1, "unit": "mg/L"},
      {"measurement": "MIC", "setting": "[12]; read-out: MIC", "result": 0.5, "unit": "mg/L"},
      {"measurement": "MIC", "setting": "[13]", "result": "< 0.25", "unit": "mg/L"},
      {"measurement": "MIC", "setting": "[14]", "result": "< 0.25", "unit": "mg/L"},
      {"measurement": "MIC", "setting": "[15]", "result": 1, "unit": "mg/L"},
      {"measurement": "MIC", "setting": "[15]; read-out: MIC", "result": 0.5, "unit": "mg/L"},
      {"measurement": "MIC", "setting": "[16]", "result": "< 0.25", "unit": "mg/L"},
      {"measurement": "MIC", "setting": "[1]", "result": 0.4, "unit": "mg/L"},
      {"measurement": "MIC", "setting": "[2]", "result": 0.1, "unit": "mg/L"},
      {"measurement": "MIC", "setting": "[3]", "result": 0.2, "unit": "mg/L"},
      {"measurement": "MIC", "setting": "[4]", "result": 0.4, "unit": "mg/L"},
      {"measurement": "MIC", "setting": "[5]", "result": 0.5, "unit": "mg/L"}
    ]}
  ]
}
